{"source": "paper PMC11509018", "about": "“Evaluation of the Role of Tanshinone I in an In Vitro System of Charcot-Marie-Tooth Disease Type 2N” (International Journal of Molecular Sciences, 2024)", "molecular_target": "T1, AlaRS N71Y binding to GST-Nrp1 b1 (Homo sapiens, UniProt P49588, N71Y)", "T1 construct": "made in house; host or cells: E. coli BL21 (DE3), pET-21a for AlaRS", "T1 sequence (P49588 1-968 N71Y)": "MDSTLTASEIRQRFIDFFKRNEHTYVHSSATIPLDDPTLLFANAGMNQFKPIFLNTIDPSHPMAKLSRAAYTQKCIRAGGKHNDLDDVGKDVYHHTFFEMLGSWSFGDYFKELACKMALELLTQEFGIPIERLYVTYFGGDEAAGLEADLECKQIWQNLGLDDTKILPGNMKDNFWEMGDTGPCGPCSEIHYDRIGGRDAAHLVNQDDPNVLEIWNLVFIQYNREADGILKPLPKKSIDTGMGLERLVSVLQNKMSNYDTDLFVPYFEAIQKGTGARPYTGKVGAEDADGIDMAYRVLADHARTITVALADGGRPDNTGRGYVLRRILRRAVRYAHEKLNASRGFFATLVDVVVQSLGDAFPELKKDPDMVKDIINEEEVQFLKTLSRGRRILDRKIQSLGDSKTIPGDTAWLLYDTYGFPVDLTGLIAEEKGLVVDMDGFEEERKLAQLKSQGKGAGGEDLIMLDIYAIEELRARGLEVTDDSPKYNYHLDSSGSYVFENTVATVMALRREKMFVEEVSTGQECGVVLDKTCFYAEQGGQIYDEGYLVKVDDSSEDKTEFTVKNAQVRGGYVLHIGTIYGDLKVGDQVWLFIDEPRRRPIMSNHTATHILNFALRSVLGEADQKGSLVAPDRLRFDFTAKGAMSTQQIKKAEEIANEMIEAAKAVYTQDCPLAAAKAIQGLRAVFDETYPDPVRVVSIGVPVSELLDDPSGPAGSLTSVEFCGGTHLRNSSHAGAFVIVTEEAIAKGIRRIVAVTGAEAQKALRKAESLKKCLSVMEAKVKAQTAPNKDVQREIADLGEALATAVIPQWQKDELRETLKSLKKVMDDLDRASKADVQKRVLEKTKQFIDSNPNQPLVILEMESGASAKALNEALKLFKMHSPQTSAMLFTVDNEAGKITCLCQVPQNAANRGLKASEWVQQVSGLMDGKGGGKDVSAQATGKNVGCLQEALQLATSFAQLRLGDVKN", "test": "GST pull down assay", "details": "20 µM Tanshinone I, ImageJ, average of three repeats", "procedure": "To further investigate whether Tanshinone I-induced conformational changes in AlaRS CMT mutants affect their interaction with Nrp1, Co-IP experiments were performed in cells treated with Tanshinone I. By comparing Co-IP results obtained before and after treatment, we assessed the influence of the drug on the binding strength and mode between the AlaRS CMT mutants and Nrp1. […] To confirm the direct effect of Tanshinone I on the interaction between AlaRS CMT mutants and Nrp1, pull-down experiments were performed. […] Given that the interaction between AlaRS mutants and Nrp1 is associated with disease progression in CMT, the ability of Tanshinone I to disrupt this binding highlights its potential to intervene in the pathogenic mechanisms of these diseases.\nFigure 7 The impact of Tanshinone I on the interaction between AlaRS mutants and Nrp1. (A) Co-IP assays were conducted to assess the binding between HA-AlaRS mutants and Nrp1, both with and without treatment with 20 µM Tanshinone I for 24 h. […] (C) Pull down assay was performed to detect the binding between AlaRS mutants and GST-Nrp1 b1 with or without 20 µM Tanshinone I. (D) Relative quantification statistics of the AlaRS mutants pulled down from the GST pull down experiments after Tanshinone I treatment were performed using ImageJ. (E) The cell viability of 293T and NSC34 cells treated with different concentrations of Tanshinone I was assessed using the CCK-8 assay over a 24 h period. TEXT PRINTED IN THE PICTURE: (B) Tanshinone I: Mean density band (N71Y): 0.60; Mean density band (G102R): 0.53; Mean density band (R326W): 0.50; Mean density band (R329H): 0.50; Mean density band (E337K): 0.62 | (D) Tanshinone I: Mean density band (N71Y): 0.82; Mean density band (G102R): 0.76; Mean density band (R326W): 0.84; Mean density band (R329H): 0.84; Mean density band (E337K): 0.90\nTo detect the direct interactions between the mutant proteins and Nrp1 in vitro, we performed a Glutathione S-transferase (GST) pull-down assay. AlaRS mutants fused with 6 × His were purified with Ni-NTA beads, followed by chromatography on a HiTrap Q HP column. Nrp1 b1 fragments fused with GST were purified with Glutathione Beads (#SA008100, Smart-Lifesciences, Changzhou, China). For GST pull-down assays, 1000 μg of each GST-fused Nrp1 b1 fragment was mixed with 200 μg of 6 × His-tagged fusion protein in binding buffer (50 mM Tris-HCl pH 7.5, 20 mM NaCl, 5% glycerol, 5 mM DTT with 0.1% BSA) at 4 °C overnight. The mixture was next incubated with 30 μL glutathione beads at 4 °C with constant rotation for 2–4 h. Subsequently, the bead/protein complex was washed three times, and eluted with 30 μL 2 × SDS sample buffer. The samples were then subjected to SDS-PAGE analysis. The experiment was repeated three times."}
{"smiles": "Cc1coc2c1C(=O)C(=O)c1c-2ccc2c(C)cccc12", "note": "[Tanshinone I]", "values": [{"measurement": "Mean density band (N71Y), relative quantification of AlaRS mutant pulled down", "value": 0.82}]}
